In patent US11866405B2, “Substituted indazoles as IRAK4 inhibitors” (AstraZeneca AB, priority 2020, dated 2024):
Like-named read-outs stand apart in the source and are kept apart here.

Assays:
[1] = target: human recombinant IRAK4 protein (Homo sapiens (Human), UniProt Q9NWZ3); experiment: IRAK4 enzyme assay (mass spectrometry readout); type: biochemical; details: 3 mM ATP, 0.2 nM enzyme; geometric mean of at least n=2, * single experiment
In short: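 0.2 nM IRAK4 preincubated 15 min at room temperature with compound (10-point half-log series, top 1 μM or 10 μM) in pH 7.4 Tris buffer with 3 mM ATP; 10 μM peptide substrate added, 2 h at room temperature, formic acid stop. Phospho/unphospho peptide ratio by LC-MS/MS; potency from curve fit, geometric mean of n≥2 or single run.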

[2] = target: IRAK4 auto-phosphorylation (Homo sapiens (Human), UniProt Q9NWZ3); experiment: IRAK4 phosphorylation cell assay in IL-1β-stimulated Karpas-299 cells; type: cell-based; details: IL-1β 22.7 ng/mL, pIRAK4 (Thr345/Ser346), geometric mean of at least 2 experiments
Sequence of IRAK4 auto-phosphorylation (Q9NWZ3 whole entry): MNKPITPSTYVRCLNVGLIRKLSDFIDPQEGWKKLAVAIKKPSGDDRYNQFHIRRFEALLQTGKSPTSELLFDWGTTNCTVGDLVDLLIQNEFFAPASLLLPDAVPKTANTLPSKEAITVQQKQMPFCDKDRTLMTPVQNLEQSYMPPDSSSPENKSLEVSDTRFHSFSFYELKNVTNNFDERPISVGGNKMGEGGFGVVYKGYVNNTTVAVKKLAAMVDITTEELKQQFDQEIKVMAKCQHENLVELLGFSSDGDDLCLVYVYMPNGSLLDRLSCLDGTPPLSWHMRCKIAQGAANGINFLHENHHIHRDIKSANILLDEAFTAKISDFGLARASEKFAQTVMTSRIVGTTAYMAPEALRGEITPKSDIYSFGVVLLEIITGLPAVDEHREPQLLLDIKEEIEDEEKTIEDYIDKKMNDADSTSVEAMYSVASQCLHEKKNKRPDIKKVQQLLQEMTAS
In short: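 Karpas-299 cells were preincubated 1 h at 37 °C with compound (10-point half-log series, top 30 μM), then stimulated 10 min with 22.7 ng/mL IL-1β. Cells were fixed and stained for pIRAK4 (Thr345/Ser346), and per-cell fluorescence was quantified by high-content imaging. IC50 values are geometric means of at least 2 experiments.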

[3] = tested on: IL-1β stimulated IL-8 release in hTHP1 cells; experiment: IL-1β-induced IL-8 release in human THP-1 monocyte cell line; type: cell-based; details: THP-1 cells, IL-1β 1.8 ng/mL
Description: Effect of IRAK4 Inhibitors on IL-1β-Induced Cytokine Release in Human THP-1 Monocyte Cell Line
THP-1 cells were cultured in RPMI 1640 (Gibco 72400-021) containing 10% FBS (Gibco 10270-106), 1 mM Na-pyruvate (Gibco 11360-070) and 100 U/mL Penicillin-Streptomycin (Gibco 15140-122). Cells were plated at 5×10^4 cells per well in 384 well Echo certified plates (Labcyte PPT-0200) to which compounds had been added at various concentrations (10 point half log dose response with a final top concentration of 10 μM) using an Echo 655 (Labcyte Inc). The plate was incubated for 1 h at 37° C., then recombinant […] (R&D Systems 201-LB-025/CF) was added to a final concentration of 1.8 ng/mL. The plates were incubated at 37° C. for 18h. The plates were centrifuged at 250×g for four minutes, then 1.6 μL of the cell supernatant was transferred to a white low volume 384 well plate (Greiner #784075) using acoustic dispensing on an Echo 655. Next, 200 nL of acceptor bead (5 mg/mL) and biotinylated anti-IL-8 antibody (500 nM) was added using acoustic dispensing (beads and antibody were from a PerkinElmer 18 Alpha LISA detection kit, AL224C). The plate was sealed, briefly centrifuged, then incubated at room temperature for 1 h. Afterwards, 200 nL of donor bead solution (5 mg/mL) was added, the plate sealed and briefly centrifuged, then incubated for 1 h before being read on an Envision plate reader to allow determination the concentration of IRAK4 inhibitor required to effect a 50% reduction in the amount of IL-8 released following IL-1β stimulation in THP1 cells (Table 2). The quantified data were analysed in Genedata Screener 15 (Genedata AG). Data presented are the geometric mean of at least n=2, or as denoted by an * are obtained from a single experiment.

[4] = 18 h, geometric mean of at least n=2, * n = 1, read-out: hTHP1, IL1β stim, IL8 release red. IC50
[5] = Homo sapiens, THP-1, 18 h, geometric mean of at least n=2, * n = 1, read-out: hTHP1, IL1β stim, IL8 release red. IC50

Sequence of human recombinant IRAK4 protein (Q9NWZ3 whole entry): as above

Compound	IC50 [1]	IC50 [2]	IC50 [3, 4]	IC50 [3, 5]
2-((1r,4r)-4-(cyclopropanecarboxamido)cyclohexyl)-6-methoxy-N-(pyrazolo[1,5-a]pyrimidin-3-yl)-2H-indazole-5-carboxamide [Example 26]	1.6 nM	26 nM	25 nM	–
6-Cyclopropoxy-2-((1r,4r)-4-(N-methylacetamido)cyclohexyl)-N-(pyrazolo[1,5-a]pyrimidin-3-yl)-2H-indazole-5-carboxamide [Example 33]	1 nM	45 nM	30 nM	–
COc1cc2nn(C3CCC4(CC3)CC(C)(O)C4)cc2cc1C(=O)Nc1cnc2cccnn12 (single isomer, unassigned) [Example 5, 2-(2-Hydroxy-2-methylspiro[3.5]nonan-7-yl)-N-(imidazo[1,2-b]pyridazin-3-yl)-6-methoxy-2H-indazole-5-carboxamide]	0.5 nM	31 nM	–	16 nM
COc1cc2nn([C@H]3CCC[C@@H](O)C3)cc2cc1C(=O)Nc1cnc2cccnn12 (single isomer, unassigned) [Example 10]	1.2 nM	19 nM	–	14 nM
COc1cc2nn([C@H]3CCC[C@@H](O)C3)cc2cc1C(=O)Nc1cnn2cccnc12 (single isomer, unassigned) [Example 13]	6.5 nM	816 nM	–	59 nM
COc1cc2nn([C@H]3CCC[C@@H](O)C3)cc2cc1C(=O)Nc1cnn2cccnc12 (single isomer, unassigned) [Example 14]	17.7 nM	171 nM	38 nM	–
O=C(Nc1cnn2cccnc12)c1cc2cn([C@H]3CCC[C@H](O)C3)nc2cc1OC1CC1 (single isomer, unassigned) [Example 19]	1 nM	47 nM	–	35 nM
O=C(Nc1cnn2cccnc12)c1cc2cn([C@H]3CCC[C@H](O)C3)nc2cc1OC1CC1 (single isomer, unassigned) [Example 20]	0.7 nM	35 nM	31 nM	–
CC(=O)N1CC2(CC[C@@H](n3cc4cc(C(=O)Nc5cnn6cccnc56)c(OC5CC5)cc4n3)[C@H](C)C2)C1 (single isomer, unassigned) [Example 29]	0.5 nM	31 nM	–	20 nM
CC(=O)N1CC2(CC[C@@H](n3cc4cc(C(=O)Nc5cnn6cccnc56)c(OC5CC5)cc4n3)[C@@H](C)C2)C1 (single isomer, unassigned) [Example 30]	< 0.3 nM	46 nM	14 nM	–
CC(=O)N1CC2(CC[C@@H](n3cc4cc(C(=O)Nc5cnn6cccnc56)c(OC5CC5)cc4n3)[C@@H](C)C2)C1 (single isomer, unassigned) [Example 31]	0.8 nM	71 nM	32 nM	–
COc1cc2nn([C@H]3CCC(N(C)C(C)=O)C[C@@H]3C)cc2cc1C(=O)Nc1cnc2cccnn12 (single isomer, unassigned) [Example 34, N-(imidazo[1,2-b]pyridazin-3-yl)-6-methoxy-2-((1S,2S,4R*)-2-methyl-4-(N-methylacetamido)cyclohexyl)-2H-indazole-5-carboxamide]	2 nM	31 nM	–	22 nM
COc1cc2nn([C@@H]3CCC(N(C)C(C)=O)C[C@H]3C)cc2cc1C(=O)Nc1cnc2cccnn12 (single isomer, unassigned) [Example 37, N-(imidazo[1,2-b]pyridazin-3-yl)-6-methoxy-2-(1R,2R,4R*)-2-methyl-4-(N-methylacetamido)cyclohexyl)-2H-indazole-5-carboxamide]	0.3 nM	6 nM	–	3 nM
COc1cc2nn([C@H]3CC[C@H](N(C)C(=O)N4CC[C@@H](O)C4)CC3)cc2cc1C(=O)Nc1cnc2cccnn12 [Example 117, 2-((1R,4r)-4-((R)-3-Hydroxy-N-methylpyrrolidine-1-carboxamido)cyclohexyl)-N-(imidazo[1,2-b]pyridazin-3-yl)-6-methoxy-2H-indazole-5-carboxamide]	0.3 nM	22 nM	–	–
